In brackets after ≈: the same amount, converted by molar mass. Like-named read-outs stand apart in the source and are kept apart here.
System: Enterobacter cloacae 3MRGN (clinical bronchial aspirate isolate)
Assay: MIC 50, broth micro-dilution, clinical isolate
Assay type: cell-based
Settings: E. Cloacae clinical isolate
Excerpt: 3.2 Against Selected Bacteria of the ESKAPE Panel and Enterococcus faecalis (DSM Strains)
Tested reference compounds. Amikacin sulfate (Cat. No. 01693, Chem-Impex), Gentamicin sulfate (Cat. No. G4918, Sigma Aldrich).
Microbial strains. Enterococcus faecalis DSM 2570, Klebsiella pneumoniae DSM 26371, Acinetobacter baumannii DSM 105126, Enterobacter cloacae 3MRGN (clinical bronchial aspirate isolate).
Culture media and equipment. BBL™ Mueller Hinton Broth 2 (Lot. BCBW1143, Cat. No. 70192, Sigma); Trypcase Soy Blood-agar plates (Cat. No. 43001, Biomérieux); Cryoinstant (contains 15% glycerol; Cat. No. 822070ZA, VWR International); GasPak™ EZ Standard Incubation Container (Cat. No. 260671, Becton Dickinson); GasPak™ EZ Campy Container System Sachets (Cat. No. 260680, Becton Dickinson); 96-well deep well plate, 1 mL (Cat. No. 0030506.200, Eppendorf); Plate lid (Cat. No. 0030131.525, Eppendorf); 96-well plate, F-bottom (Cat. No. 260860, Nunc); Incubator (Sartorius Certomat BS-1); Laminar flow (Heraeus HS12); UV/VIS meter (Perkin Elmer Lambda Bio+); Platereader (Tecan Infinite M200 Pro).
Compound preparation. Compounds were prepared in MH2 media at a concentration of 5 mM and stored at 4° C. For testing, solutions of 128 μM were prepared in MH2, for tests against E. faecalis a solution of 512 μM was prepared. Out of these working solutions, 400 μL was transferred to wells in the first column of 96-well deep well plates. Each compound was transferred in triplicate. Plates were previously filled with 200 μL of MH2 media in all wells except for the wells in the first column. After compound and antibiotic addition, the compounds were serial two-fold diluted by transferring 200 μL from the first to the second column, then from the second to the third column and so on. Finally, 200 μL was removed from the last column.
Inoculum preparation. Microorganisms used were all revived from 15% glycerol storage in Croinstant tubes at −28° C. by plating them on blood agar plates. A. baumanni, and E. cloacae were grown aerobically at 37° C., E. faecalis was grown microaerophilically at 37° C., and K. pneumoniae was grown aerobically at 37° C. Plates were stored at 4° C. for up to two weeks, after which new plates were prepared from −28° C. A single colony was inoculated in MH2 media and grown at 37° C. and 200 rpm to an optical density (measured by UV/Vis spectroscopy) of 0.6-0.8 at 600 nm. Out of these suspensions, actual inoculums were prepared by diluting them to an optical density of 0.1 in MH2 media. From these inoculums, 200 μL was transferred to each well, resulting in a final compound concentration range of 64 μM-31.3 nM for, K. pneumoniae, A. baumanni, and E. cloacae, and 256 μM-125 nM for E. faecalis. Plates inoculated with E. faecalis were placed inside a GasPak™ Container System with GasPak™ Campy Container System sachets. All plates were incubated at 200 rpm for 18 h under the microorganism culturing conditions mentioned above.
MIC determination. After 18 h of growth, 200 μL was transferred to a 96-well F-bottom plate. The optical density was determined by a plate reader at 600 nm, with 10 s shaking before reading. Triplicate measurements were averaged, and a growth curve was plotted in Excel. The first column in which the growth reached half the value of maximum growth was determined as the MIC50 value for that particular compound.
MIC50. The MIC50 of a compound was assigned at which the bacterial growth reached half the value of maximum growth.

[1] = Enterobacter cloacae, read-out: MIC 50

Compound	MIC50	MIC50 [1]
NCC[C@H](O)C(=O)N[C@@H]1C[C@H](N)[C@@H](O[C@H]2O[C@H](CN)[C@@H](O)[C@@H](O)[C@H]2O)[C@H](O)[C@H]1O[C@H]1O[C@H](CO)[C@@H](O)[C@H](N)[C@H]1O [ABX3002, 3′Epi-KanaA-AHB]	16 µM (≈ 9.37 µg/mL)	
N=C(N)NC1[C@@H](O)C(OC2[C@@H](F)[C@H](O[C@H]3OC(CN)[C@@H](O)[C@H](O)C3O)C(N)C[C@H]2NC(=O)[C@@H](O)CCN)O[C@H](CO)[C@H]1O (stereo partly drawn) [ABX3003, 3′epi-KanaA-AHB-F-Gua]		1 to 2 µM (≈ 0.63 to 1.26 µg/mL)
NCCC(O)C(=O)NC1CC(N)C(OC2OC(CN)C(O)C(O)C2O)C(F)C1OC1OC(CO)C(O)C(N)C1O (stereo not drawn) [ABX3005, 3′Epi-KanaA-AHB-F]	4 µM (≈ 2.35 µg/mL)	
NCCC(O)C(=O)NC1CC(N)C(OC2OC(CN)C(O)C(O)C2N)C(O)C1OC1OC(CO)C(O)C(N)C1O (centres unmarked) [ABX4001, KanaB-AHB]	2 µM (≈ 1.17 µg/mL)	
NCC[C@H](O)C(=O)N[C@@H]1CC(N)[C@@H](O[C@H]2OC(CN)[C@@H](O)[C@@H](O)C2N)[C@H](O)C1OC1O[C@H](CO)[C@@H](O)C(N)[C@H]1O (stereo partly drawn) [ABX4002, 3′Epi-KanaB-AHB]	4 µM (≈ 2.34 µg/mL)	
NCC[C@H](O)C(=O)N[C@@H]1CC(N)[C@@H](O[C@H]2OC(CN)[C@@H](O)[C@@H](O)C2N)[C@H](F)C1OC1O[C@H](CO)[C@@H](O)C(N)[C@H]1O (stereo partly drawn) [ABX4003, 3′Epi-KanaB-AHB-F]	4 µM (≈ 2.35 µg/mL)	
N=C(N)NC1[C@@H](O)C(OC2[C@@H](F)[C@H](O[C@H]3OC(CN)[C@@H](O)[C@H](O)C3N)C(N)C[C@H]2NC(=O)[C@@H](O)CCN)O[C@H](CO)[C@H]1O (stereo partly drawn) [ABX4004, 3′epi-KanaB-AHB-F-Gua]	1 µM (≈ 0.629 µg/mL)	
N=C(N)N[C@@H]1[C@@H](O)[C@@H](O[C@@H]2[C@@H](O)[C@H](O[C@H]3O[C@H](CN)[C@@H](O)[C@@H](O)[C@H]3N)[C@@H](N)C[C@H]2NC(=O)[C@@H](O)CCN)O[C@H](CO)[C@H]1O [ABX4005, 3′Epi-KanaB-AHB-Gua]	4 to 8 µM	
N=C(N)NC1[C@@H](O)C(OC2[C@@H](F)[C@H](O[C@H]3OC(CN)[C@@H](O)[C@H](O)C3N)C(N)C[C@H]2NC(=O)[C@@H](O)CCN)O[C@H](CO)[C@H]1O (some centres unmarked) [ABX4006, KanaB-AHB-F-Gua]	0.25 to 0.5 µM	
NCCC(O)C(=O)NC1CC(N)C(OC2OC(CN)C(O)C(O)C2N)C(F)C1OC1OC(CO)C(O)C(N)C1O (centres unmarked) [ABX4007, KanaB-AHB-F]	1 to 2 µM	
N=C(N)NC1[C@@H](O)C(OC2[C@@H](O)[C@H](O[C@H]3OC(CN)[C@@H](O)[C@H](O)C3N)C(N)C[C@H]2NC(=O)[C@@H](O)CCN)O[C@H](CO)[C@H]1O (some centres unmarked) [ABX4009, KanaB-AHB-Gua]	2 µM (≈ 1.25 µg/mL)	
NCC[C@H](O)C(=O)N[C@@H]1CC(N)[C@@H](O[C@H]2OC(CN)[C@@H](O)CC2N)[C@H](O)C1OC1O[C@H](CO)[C@@H](O)C(N)[C@H]1O (some centres unmarked) [ABX5004, Tobra-AHB]	1 µM (≈ 0.569 µg/mL)	
N=C(N)NC1[C@@H](O)C(OC2[C@@H](O)[C@H](O[C@H]3OC(CN)[C@@H](O)CC3N)C(N)C[C@H]2NC(=O)[C@@H](O)CCN)O[C@H](CO)[C@H]1O (some centres unmarked) [ABX5005, Tobra-AHB-Gua]	1 µM (≈ 0.611 µg/mL)	
N=C(N)NC1C(O)[C@@H](CO)OC(OC2C(F)[C@H](O[C@H]3OC(CN)[C@@H](O)CC3N)C(N)C[C@H]2NC(=O)[C@@H](O)CCN)[C@@H]1O (some centres unmarked) [ABX5006, Tobra-AHB-F-Gua]		0.25 to 0.5 µM (≈ 0.153 to 0.306 µg/mL)
N=C(NCCN)NC1C(O)[C@@H](CO)OC(OC2C(F)[C@H](O[C@H]3OC(CN)[C@@H](O)CC3N)C(N)C[C@H]2NC(=O)[C@@H](O)CCN)[C@@H]1O (some centres unmarked) [ABX5020, Tobra-AHB-F-Gua-2-amino-ethyl]		0.5 µM (≈ 0.328 µg/mL)
NCC[C@H](O)C(=O)N[C@@H]1CC(N)[C@@H](O[C@H]2OC(CN)[C@@H](O)CC2N)[C@H](F)C1OC1O[C@H](CO)[C@@H](O)C(N)[C@H]1O (some centres unmarked) [ABX5024, Tobra-AHB-F]	1 µM (≈ 0.571 µg/mL)	
CC(C)(C)CCNC(=N)NC1[C@@H](O)C(OC2[C@@H](F)[C@H](O[C@H]3OC(CN)[C@@H](O)CC3N)C(N)C[C@H]2NC(=O)[C@@H](O)CCN)O[C@H](CO)[C@H]1O (some centres unmarked) [ABX5025, Tobra-AHB-F-Gua 2-tBu-ethyl]		0.5 to 1 µM (≈ 0.348 to 0.697 µg/mL)
N=C(NC[C@@H]1CCCN1)NC1[C@@H](O)C(OC2[C@@H](F)[C@H](O[C@H]3OC(CN)[C@@H](O)CC3N)C(N)C[C@H]2NC(=O)[C@@H](O)CCN)O[C@H](CO)[C@H]1O (stereo partly drawn) [ABX5026, Tobra-AHB-F-Gua (S) pyrrolidine-2-yl-methyl]		0.25 µM (≈ 0.174 µg/mL)
N=C(NCC1CC1)NC1[C@@H](O)C(OC2[C@@H](F)[C@H](O[C@H]3OC(CN)[C@@H](O)CC3N)C(N)C[C@H]2NC(=O)[C@@H](O)CCN)O[C@H](CO)[C@H]1O (some centres unmarked) [ABX5027, Tobra-AHB-F-Gua cyclopropylmethyl]		0.5 µM (≈ 0.333 µg/mL)
N=C(NCCO)NC1[C@@H](O)C(OC2[C@@H](F)[C@H](O[C@H]3OC(CN)[C@@H](O)CC3N)C(N)C[C@H]2NC(=O)[C@@H](O)CCN)O[C@H](CO)[C@H]1O (some centres unmarked) [ABX5029, Tobra-AHB-F-Gua 2-hydroxy-ethyl]		1 µM (≈ 0.657 µg/mL)
N=C(NCCCN)NC1[C@@H](O)C(OC2[C@@H](F)[C@H](O[C@H]3OC(CN)[C@@H](O)CC3N)C(N)C[C@H]2NC(=O)[C@@H](O)CCN)O[C@H](CO)[C@H]1O (some centres unmarked) [ABX5030, Tobra-AHB-F-Gua-3-amino-propyl]		1 µM (≈ 0.67 µg/mL)
CNCCNC(=N)NC1[C@@H](O)C(OC2[C@@H](F)[C@H](O[C@H]3OC(CN)[C@@H](O)CC3N)C(N)C[C@H]2NC(=O)[C@@H](O)CCN)O[C@H](CO)[C@H]1O (some centres unmarked) [ABX5038, Tobra-AHB-F-Gua 2-(methylamino)ethyl]		0.5 µM (≈ 0.335 µg/mL)
N=C(NC[C@@H]1CCNC1)NC1[C@@H](O)C(OC2[C@@H](F)[C@H](O[C@H]3OC(CN)[C@@H](O)CC3N)C(N)C[C@H]2NC(=O)[C@@H](O)CCN)O[C@H](CO)[C@H]1O (stereo partly drawn) [ABX5039, Tobra-AHB-F-Gua (R) pyrrolidine-3-ylmethyl]		0.25 µM (≈ 0.174 µg/mL)
N=C(NC[C@@H]1CNCCO1)NC1[C@@H](O)C(OC2[C@@H](F)[C@H](O[C@H]3OC(CN)[C@@H](O)CC3N)C(N)C[C@H]2NC(=O)[C@@H](O)CCN)O[C@H](CO)[C@H]1O (stereo partly drawn) [ABX5040, Tobra-AHB-F-Gua (S) morpholin-2-yl methyl]		0.25 µM (≈ 0.178 µg/mL)
N=C(NCCCO)NC1[C@@H](O)C(OC2[C@@H](F)[C@H](O[C@H]3OC(CN)[C@@H](O)CC3N)C(N)C[C@H]2NC(=O)[C@@H](O)CCN)O[C@H](CO)[C@H]1O (some centres unmarked) [ABX5041, Tobra-AHB-F-Gua 3-hydroxy-propyl]		1 µM (≈ 0.671 µg/mL)
N=C(NC[C@H]1CCNC1)NC1[C@@H](O)C(OC2[C@@H](F)[C@H](O[C@H]3OC(CN)[C@@H](O)CC3N)C(N)C[C@H]2NC(=O)[C@@H](O)CCN)O[C@H](CO)[C@H]1O (stereo partly drawn) [ABX5042, Tobra-AHB-F-Gua (S) pyrrolidine-3-ylmethyl]		0.25 µM (≈ 0.174 µg/mL)
N=C(NC[C@H]1CNCCO1)NC1[C@@H](O)C(OC2[C@@H](F)[C@H](O[C@H]3OC(CN)[C@@H](O)CC3N)C(N)C[C@H]2NC(=O)[C@@H](O)CCN)O[C@H](CO)[C@H]1O (stereo partly drawn) [ABX5043, Tobra-AHB-F-Gua (R) morpholin-2-yl methyl]		0.25 µM (≈ 0.178 µg/mL)
N=C(N)NC1[C@@H](O)C(OC2[C@@H](F)[C@H](O[C@H]3OC(CNCCO)[C@@H](O)CC3N)C(N)C[C@H]2NC(=O)[C@@H](O)CCN)O[C@H](CO)[C@H]1O (some centres unmarked) [ABX5045, 6N-2-hydroxy-ethyl-Tobra-AHB-F-Gua]		1 µM (≈ 0.657 µg/mL)
N=C(NCC1CCCO1)NC1[C@@H](O)C(OC2[C@@H](F)[C@H](O[C@H]3OC(CN)[C@@H](O)CC3N)C(N)C[C@H]2NC(=O)[C@@H](O)CCN)O[C@H](CO)[C@H]1O (some centres unmarked) [ABX5046, Tobra-AHB-F-Gua tetrahydrofuran-2-yl methyl]		1 µM (≈ 0.697 µg/mL)

Reference: patent publication US20220127297A1, “Novel Antibacterial 3"-Derivatives Of 4,6-Disubstituted 2,5-Dideoxystreptamine Aminoglycoside Antibiotics” (AGILeBiotics B.V., priority 2018, published 2022)
